The subject of assay [1] is A431 cells. The assay is described as follows: ELISA cell activity, EGF-stimulated A431 cells.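 Note: Serum-starved A431 cells pretreated with compound for 1 h, then stimulated with EGF for 45 min, lysates read by ELISA (OD450 minus OD570), EGF-only wells as control.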 The settings on record: ELISA, compound 1 h then EGF 45 minutes, read-out: A431 cells (IC50/nM). In kind it is cell-based.
Description: (§1) The reagents, preparation methods of the solution, as well as the procedures of cell treatments and preparation of lysate, and the test steps of ELISA in the following method were conducted according to the instructions of R&D DYC3570, R&D DYC1095E and R&D DYC1095BE.
(§2) Cell lysates: cell lysis buffer+10 μg/ml Aprotinin (Sigma), 10 μg/ml Leupeptin (Sigma). All reagents were prepared when using.
(2) The medium of A431 cells was changed to 90 ul of DMEM FBS free medium, and incubated overnight.
(3) The test compounds were diluted according to the method in MTT assay, 10 μl of diluted compound or DMSO was added to the corresponding plate well, and incubated at 37° C. with 5% CO2 for 1 h. The final concentration of DMSO was 0.5%. 10 μl of 2 μg/L EGF was then added to each well except the cell control well, 10 μl of FBS free DMEM was added to the well, and incubated for 45 minutes; the EGF-free and compound treatment-free cells were used as cell control, and the compound treatment-free but only EGF-treated cells were used as EGF control.
(4) 100 μl cell lysate was added after aspirating the medium, sealed and placed in refrigerator at −80° C. overnight.
The assay was operated according to the instructions of R&D DYC3570E.
(§3) (5) 40 μl of cell lysis buffer and 60 μl of cell lysates were added, and incubated at 25° C. for 2 h under shaking;
(7) Detection antibody was diluted according to a predetermined ratio of kit instruction by using IC dilution, and 100 μl of the diluted Detection Antibody was added to each well, and incubated at 25° C. for 1 h under shaking in darkness;
(9) reagent A and reagent B of TMB substrate (R & D DY999) were mixed at 1:1, 100 μl of substrate was added to each well, and incubated at 25° C. for 20 minutes under shaking in darkness;
(11) The OD450 values and OD570 values of the cell control, blank control and compound treatment were measured respectively by using microplate reader (Thermo Multiskan K3), and the corresponding OD570 values were subtracted from OD450 values of the same wells to get the ODEGF, ODcompound and ODcell respectively.
The test system of assay [2] is H1975 cells. Kind of assay: ELISA screening EGFR T790M inhibitor for cell activity, H1975 cells. Type of assay: cell-based. The settings on record: ELISA; for IC50: compound 1 h, read-out: H1975 cells (IC50/nM); for Selective inhibitory activities of target on cellular level [IC50 (A431 cells)/IC50 (H1975 cells)]: ratio of IC50 values. Background: In an ELISA, binding on a coated surface is turned into a signal by an enzyme label.
Description: as §1, §2
(2) The test compounds were diluted according to the method in MTT assay, and 10 μl of diluted compound or DMSO was added to the corresponding plate well, and incubated at 37° C. with 5% CO2 for 1 h. The final concentration of DMSO was 0.5%. Cell culture system merely treated with DMSO was used as cell control.
(3) 100 μl cell lysate was added after aspirating the medium, sealed and placed in a refrigerator at −80° C. overnight. Cell lysis buffer used as blank control.
The assay was operated according to the instructions of R&D DYC1095E or R&D DYC1095BE.
as §3
(7) Detection antibody was diluted according to a predetermined ratio as stipulated in kit instructions by using IC diluent, and 100 μl of the diluted Detection Antibody was added to each well, and incubated at 25° C. for 1 h under shaking in darkness;
(9) reagent A and reagent B of TMB substrate (R & D DY999) were mixed with 1:1, and 100 μl of substrate was added to each well, and incubated at 25° C. for 20 minutes under shaking in darkness;
(11) The OD450 values and OD570 values of the cell control, blank control and compound treatment were measured respectively by using microplate reader (Thermo Multiskan K3), and the corresponding OD570 values were subtracted from OD450 values of the same wells to get the ODcell, ODblank and ODcompound treatment respectively.
2.3 Data Analysis Inhibition ratio (%)=100%×(ODcell−ODcompound treatment)(ODcell−ODblank)

Assay [3] has as its system A431 cells. Kind of assay: Cytostatic activity by MTT method, A431 cells.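 Note: viability read by MTT reduction after compound exposure, with MTT incubated for a further 4 h at 37 °C under 5% CO2 in 96-well plates.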 Particulars: read-out: A431 cells (IC50/nM). A general note: Formazan colour is commonly taken as a measure of viable cells.
Description: After rinsed for one time, 1.5 ml trypsin/EDTA was added to digest the adherent cells until the cells detached, and then 3.5 ml of medium was added to terminate the trypsinization. The digested cell suspension was transferred to a 15 ml falcon tube, and spun at 1300 rpm for 3 min, the supernatant was discarded, and cells were suspended in fresh medium.
The cells were added into the incubator after addition of the test compound, and incubated for 72 h, 10 μl of 5 mg/ml MTT (Sigma, M5655) solution was added to each well of the plate, and incubated the 96-well plates at 37° C. 5% CO2 for 4 h in a incubator.
The plates were spun at 2000 rpm for 5 min.
For assay [4], the system named is H1975 cells. The assay is described as follows: Cytostatic activity by MTT method, H1975 cells. In kind it is cell-based. The settings on record: MTT; for IC50: 72 h, read-out: H1975 cells (IC50/nM); for selective inhibitory activity against the cell growth [IC50 (A431 cells)/IC50 (H1975 cells)]: ratio of IC50 values.
Another assay has as its target EGFR WT kinase (Homo sapiens (Human), UniProt P00533). Kind of assay: Wild type EGFR kinase inhibition test (z-lyte). In kind it is biochemical. The settings on record: 10 μM ATP.
In a further assay the test system is NIH3T3 cells. The assay is described as follows: Cytotoxicity by MTT method, NIH3T3 cells.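 Note: cells grown in 96-well plates with compound for 72 h, then given MTT for a further 4 h at 37 °C under 5% CO2.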 In kind it is cell-based. The settings on record: cytotoxicity, MTT, 72 h, read-out: NIH3T3 cells MTT assay (IC50/nM).

The structures appear in SMILES notation. Read-outs that look alike come from different tables or passages of the source. A value given as a limit tells only on which side of the number the result lay.

Sequence of EGFR WT kinase (P00533 25-1210): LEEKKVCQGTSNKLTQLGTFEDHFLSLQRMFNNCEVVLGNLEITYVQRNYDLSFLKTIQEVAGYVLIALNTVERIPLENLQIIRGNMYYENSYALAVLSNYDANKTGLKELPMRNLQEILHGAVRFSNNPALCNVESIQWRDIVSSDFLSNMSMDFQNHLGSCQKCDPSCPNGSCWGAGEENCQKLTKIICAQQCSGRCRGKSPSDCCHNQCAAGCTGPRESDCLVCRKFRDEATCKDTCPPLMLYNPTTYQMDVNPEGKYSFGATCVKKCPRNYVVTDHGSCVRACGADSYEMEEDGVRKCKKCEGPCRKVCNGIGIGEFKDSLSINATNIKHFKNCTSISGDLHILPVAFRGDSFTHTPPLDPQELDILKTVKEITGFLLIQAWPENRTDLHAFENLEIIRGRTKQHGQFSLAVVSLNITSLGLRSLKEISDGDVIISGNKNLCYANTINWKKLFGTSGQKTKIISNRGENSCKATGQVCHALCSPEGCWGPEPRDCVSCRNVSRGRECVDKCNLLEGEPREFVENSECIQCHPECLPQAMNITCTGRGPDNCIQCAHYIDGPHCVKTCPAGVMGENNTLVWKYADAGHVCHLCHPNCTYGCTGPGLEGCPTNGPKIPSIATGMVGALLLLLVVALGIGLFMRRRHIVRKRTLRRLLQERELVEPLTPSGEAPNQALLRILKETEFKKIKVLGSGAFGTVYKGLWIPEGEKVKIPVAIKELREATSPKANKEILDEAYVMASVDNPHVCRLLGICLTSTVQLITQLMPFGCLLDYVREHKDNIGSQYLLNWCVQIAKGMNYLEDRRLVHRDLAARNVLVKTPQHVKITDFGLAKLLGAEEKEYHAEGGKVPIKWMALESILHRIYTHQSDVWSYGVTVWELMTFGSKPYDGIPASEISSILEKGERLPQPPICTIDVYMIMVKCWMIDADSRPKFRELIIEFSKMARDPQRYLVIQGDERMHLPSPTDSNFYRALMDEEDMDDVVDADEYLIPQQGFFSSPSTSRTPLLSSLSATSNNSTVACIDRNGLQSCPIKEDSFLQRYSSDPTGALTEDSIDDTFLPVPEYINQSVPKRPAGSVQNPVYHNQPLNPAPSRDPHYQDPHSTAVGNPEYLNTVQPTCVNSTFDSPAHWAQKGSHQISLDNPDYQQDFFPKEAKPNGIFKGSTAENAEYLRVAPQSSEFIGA

On to `C=CC(=O)Nc1cc(Nc2ncc(Cl)c(-c3cn[nH]c3)n2)c(OC)cc1N1CCC(N(C)C)CC1` [Compound Z-102, N-(5-(5-chloro-4-(1H-pyrazol-4-yl)pyrimidin-2-ylamino)-2-(4-(dimethylamino)piperidin-1-yl)-4-methoxyphenyl)acrylamide], for which the IC50 came to 1020 nM in the assay on A431 cells [1] (Homo sapiens, A-431); 11 nM with H1975 cells [2] (Homo sapiens, NCI-H1975); 597 nM in the assay on A431 cells [3] (Homo sapiens, A-431, 72 h); 15 nM in the assay with H1975 cells [4] (Homo sapiens, NCI-H1975).
Turning to `C=CC(=O)Nc1cc(Nc2ncc(F)c(-c3cnc4c(c3)c(Cl)cn4C)n2)c(OC)cc1N(C)CCN(C)C` [Compound Z-123], the IC50 at EGFR WT kinase worked out at 3 nM; with NIH3T3 cells, 4740 nM; with A431 cells [3] (MTT, 72 h) it was 1040 nM; in the assay with H1975 cells [4], 26 nM. Further, in the assay on H1975 cells [4], the “selective inhibitory activity against the cell growth [IC50 (A431 cells)/IC50 (H1975 cells)]” value (shortened to “selective inhibitory activity”) is recorded as 40.2.
For `C=CC(=O)Nc1cc(Nc2ncc(OC)c(-c3cnc4c(cnn4C)c3)n2)c(OC)cc1N(C)CCN(C)C` [Compound Z-44] the same measures were 30 nM, 8880 nM, 1810 nM, 32 nM and 56.7.
As to `C=CC(=O)Nc1cc(Nc2ncc(Cl)c(-c3cnc4c(ccn4C)c3)n2)c(OC)cc1N1CC(N(C)C)C1` [Compound Z-113], the IC50 with A431 cells [1] stood at 2250 nM; in the assay with H1975 cells [2], 99 nM; on EGFR WT kinase it was 121 nM; in the assay with NIH3T3 cells, 5320 nM. In addition, in the assay with H1975 cells [2], the “Selective inhibitory activities of target on cellular level [IC50 (A431 cells)/IC50 (H1975 cells)]” value (“Selective inhibitory activities” for short) was determined as 22.8.
`C=CC(=O)Nc1cc(Nc2nccc(-c3cnc4c(ccn4C)c3)n2)c(OC)cc1N(C)CCN(CC)CC` [Compound Z-107]: the IC50 with A431 cells [1] was found to be 855 nM; in the assay on H1975 cells [2] it was 55 nM; against EGFR WT kinase, 16 nM; with A431 cells [3] (MTT, 72 h) it was 1410 nM; with H1975 cells [4] it was 37 nM. Besides, the “Selective inhibitory activities” value in the assay with H1975 cells [2] is 15.5. Further, the “selective inhibitory activity” value in the assay with H1975 cells [4] turned out to be 38.2.
Take `C=CC(=O)Nc1cc(Nc2ncc(OC)c(-c3cnc4ccccc4c3)n2)c(OC)cc1N1CCC(N(C)C)CC1` [compound 3, reference compound]: the IC50 in the assay with A431 cells [1] (Homo sapiens, A-431) was 3110 nM; in the assay with H1975 cells [2] (Homo sapiens, NCI-H1975), 1140 nM; in the assay with A431 cells [3] (Homo sapiens, A-431, 72 h), 2970 nM; in the assay with H1975 cells [4] (Homo sapiens, NCI-H1975) it was 437 nM. The “Selective inhibitory activities” value with H1975 cells [2] was determined as 2.7. Besides, the “selective inhibitory activity” value in the assay on H1975 cells [4] turned out to be 6.8.
Turning to `C=CC(=O)Nc1cc(Nc2nccc(-c3cnc4c(cnn4C)c3)n2)c(OC)cc1N(C)CCN(C)C` [Compound Z-6, N-(2-((2-(dimethylamino)ethyl)(methyl)amino)-4-methoxy-5-(4-(1-methyl-1H-pyrazolo[3,4-b]pyridin-5-yl)pyrimidin-2-ylamino)phenyl)acrylamide], the IC50 in the assay on A431 cells [1] (Homo sapiens, A-431) turned out to be 194 nM; with H1975 cells [2] (Homo sapiens, NCI-H1975), 34 nM; against EGFR WT kinase it was 10 nM; in the assay on A431 cells [3] (Homo sapiens, A-431, 72 h) it was 773 nM; in the assay on H1975 cells [4] (Homo sapiens, NCI-H1975), 17 nM. Further, in the assay on H1975 cells [2], the “Selective inhibitory activities” value worked out at 5.7. Besides, in the assay on H1975 cells [4], the “selective inhibitory activity” value turned out to be 45.5.
Consider `C=CC(=O)Nc1cc(Nc2nccc(-c3cnc4[nH]ccc4c3)n2)c(OC)cc1N(C)CCN(C)C` [Compound Z-30], for which the IC50 in the assay with NIH3T3 cells came to 5790 nM; in the assay on A431 cells [3] (MTT, 72 h), 1110 nM; in the assay on H1975 cells [4] it was 25 nM. Moreover, the “selective inhibitory activity” value in the assay on H1975 cells [4] turned out to be 44.4.
On to `C=CC(=O)Nc1cc(Nc2ncc(Cl)c(-c3ccn(C)c3)n2)c(OC)cc1N1CCC(N(C)C)CC1` [Compound Z-98, N-(5-(5-chloro-4-(1-methyl-1H-pyrrol-3-yl)pyrimidin-2-ylamino)-2-(4-(dimethylamino)piperidin-1-yl)-4-methoxyphenyl)acrylamide], for which the IC50 against EGFR WT kinase is 407 nM; in the assay with NIH3T3 cells (Mus musculus, NIH3T3), 4360 nM; in the assay with A431 cells [3] (Homo sapiens, A-431, 72 h) it was 1640 nM; with H1975 cells [4] (Homo sapiens, NCI-H1975), 108 nM. For the same compound, in the assay on H1975 cells [4], the “selective inhibitory activity” value turned out to be 15.2.
As for `C=CC(=O)Nc1cc(Nc2nccc(-c3cccnc3)n2)c(OC)cc1N1CCC(N(C)C)CC1` [compound 2, reference compound], the IC50 with A431 cells [1] (Homo sapiens, A-431) was 199 nM; with H1975 cells [2] (Homo sapiens, NCI-H1975), 241 nM; with A431 cells [3] (Homo sapiens, A-431, 72 h), 6660 nM; in the assay with H1975 cells [4] (Homo sapiens, NCI-H1975) it was 277 nM. Further, the “Selective inhibitory activities” value in the assay on H1975 cells [2] was determined as 0.83. The “selective inhibitory activity” value in the assay on H1975 cells [4] was found to be 24.
`C=CC(=O)Nc1cc(Nc2nccc(-c3cnc4c(ccn4C)c3)n2)c(OC)cc1N(C)CCN1CCCC1` [Compound Z-112]: the IC50 with A431 cells [1] is 486 nM; in the assay on H1975 cells [2], 77 nM; on EGFR WT kinase, 22 nM; in the assay on NIH3T3 cells, > 10000 nM. Besides, in the assay with H1975 cells [2], the “Selective inhibitory activities” value was 6.3.
With `C=CC(=O)Nc1cc(Nc2ncc(Cl)c(-c3cnc4c(ccn4C)c3)n2)c(OC)cc1N(C)CCN(C)CC` [Compound Z-109], the IC50 in the assay with A431 cells [1] came out at 434 nM; in the assay with H1975 cells [2], 85 nM; against EGFR WT kinase it was 28 nM; in the assay on NIH3T3 cells, 6000 nM. In addition, the “Selective inhibitory activities” value with H1975 cells [2] was 5.1.
Regarding `C=CC(=O)Nc1cc(Nc2nccc(-c3cnc4c(ccn4C)c3)n2)c(OC)cc1N(C)CCNC` [Compound Z-106], the IC50 with A431 cells [1] was found to be 193 nM; with H1975 cells [2], 12 nM; against EGFR WT kinase, 4 nM; in the assay on A431 cells [3] (MTT, 72 h), 685 nM; with H1975 cells [4] it was 13 nM. The “Selective inhibitory activities” value with H1975 cells [2] is 16.1. Besides, in the assay with H1975 cells [4], the “selective inhibitory activity” value turned out to be 52.7.
Turning to `C=CC(=O)Nc1cc(Nc2nccc(-c3cnc4c(ccn4C)c3)n2)c(OC)cc1N(C)CCCN(C)C` [Compound Z-108], the IC50 in the assay with NIH3T3 cells turned out to be 3620 nM; in the assay with A431 cells [3] (MTT, 72 h) it was 2900 nM; in the assay on H1975 cells [4], 77 nM. The “selective inhibitory activity” value in the assay on H1975 cells [4] amounted to 37.7.
Consider `C=CC(=O)Nc1cc(Nc2nccc(-c3cnc4c(ccn4C)c3)n2)c(OC)cc1N(C)CCN(C)CC` [Compound Z-105], for which the IC50 with A431 cells [1] worked out at 181 nM; in the assay with H1975 cells [2], 28 nM; against EGFR WT kinase, 7 nM; in the assay with NIH3T3 cells, 9360 nM. For the same compound, in the assay on H1975 cells [2], the “Selective inhibitory activities” value is 6.5.
In the case of `C=CC(=O)Nc1cc(Nc2ncc(Cl)c(-c3cnn(C)c3)n2)c(OC)cc1N(C)CCN(C)C` [Compound Z-19, N-(5-((5-chloro-4-(1-methyl-1H-pyrazol-4-yl)pyrimidin-2-yl)amino)-2-((2-(dimethylamino)ethyl)(methyl)amino)-4-methoxyphenyl)acrylamide], the IC50 is 675 nM in the assay with A431 cells [1] (Homo sapiens, A-431); 21 nM in the assay with H1975 cells [2] (Homo sapiens, NCI-H1975); 4510 nM with NIH3T3 cells (Mus musculus, NIH3T3); 757 nM with A431 cells [3] (Homo sapiens, A-431, 72 h); 22 nM in the assay on H1975 cells [4] (Homo sapiens, NCI-H1975).
Regarding `C=CC(=O)Nc1cc(Nc2ncc(Cl)c(-c3cnc4c(ccn4C)c3)n2)c(OC)cc1N(C)CCN(C)C` [Compound Z-1, N-(5-(5-chloro-4-(1-methyl-1H-pyrrolo[2,3-b]pyridin-5-yl)pyrimidin-2-amino)-2-((2-(dimethylamino)ethyl)methylamino)-4-methoxyphenyl)acrylamide], the IC50 worked out at 471 nM in the assay on A431 cells [1], 30 nM in the assay on H1975 cells [2], 25 nM against EGFR WT kinase and 6590 nM in the assay on NIH3T3 cells. Besides, the “Selective inhibitory activities” value in the assay with H1975 cells [2] was 15.7.
As for `C=CC(=O)Nc1cc(Nc2ncc(C(F)(F)F)c(-c3cnc4c(ccn4C)c3)n2)c(OC)cc1N(C)CCN(C)C` [Compound Z-22, N-(2-((2-(dimethylamino)ethyl)(methyl)amino)-4-methoxy-5-((4-(1-methyl-1H-pyrrolo[2,3-b]pyridin-5-yl)-5-(trifluoromethyl)pyrimidin-2-yl)amino)phenyl)acrylamide], the IC50 is 1230 nM with A431 cells [1] (Homo sapiens, A-431); 23 nM in the assay with H1975 cells [2] (Homo sapiens, NCI-H1975); 57 nM against EGFR WT kinase; 1900 nM in the assay on A431 cells [3] (Homo sapiens, A-431, 72 h); 29 nM in the assay with H1975 cells [4] (Homo sapiens, NCI-H1975). Besides, the “Selective inhibitory activities” value in the assay on H1975 cells [2] stood at 53.6. The “selective inhibitory activity” value in the assay on H1975 cells [4] is reported as 65.5.
Take `C=CC(=O)Nc1cc(Nc2nccc(-c3cnc4c(ccn4C(C)C)c3)n2)c(OC)cc1N(C)CCN(C)C` [Compound Z-124]: the IC50 against EGFR WT kinase came out at 13 nM; in the assay on NIH3T3 cells, 3240 nM; in the assay with A431 cells [3] (MTT, 72 h), 1780 nM; in the assay with H1975 cells [4], 38 nM. In addition, the “selective inhibitory activity” value in the assay with H1975 cells [4] is given as 46.8.
Consider `C=CC(=O)Nc1cc(Nc2ncc(Cl)c(-c3cnn(C)c3C)n2)c(OC)cc1N(C)CCN(C)C` [Compound Z-55], for which the IC50 in the assay on A431 cells [1] was determined as 200 nM; in the assay on H1975 cells [2], 15 nM; against EGFR WT kinase, 21 nM; with NIH3T3 cells, 5420 nM; with A431 cells [3] (MTT, 72 h) it was 660 nM.

Source of the values: US10435400B2, “2,4-disubstituted phenylene-1,5-diamine derivatives and applications thereof, and pharmaceutical compositions and pharmaceutically acceptable compositions prepared therefrom” (SHANGHAI HAIYAN PHARMACEUTICAL TECHNOLOGY CO., LTD., priority 2014, dated 2019).
